Measured values published in patent publication US6448034B1, “Production of variant nisin” (priority 1994, dated 2002).
Values after ≈ are worked out from the molar mass of the structure shown. Marks after values point to notes of the source that are not given here.

Assays:
[1] = system: sensitive L. Lactis strain MG1614; assay: Minimum inhibitory concentration (MIC); type: cell-based; conditions: Table 5
[2] = system: Lactobacillus helveticus CH-1; assay: Plate diffusion bioassay of cell-free extracts / culture supernatants; type: cell-based; conditions: for Activity (% of wt): antimicrobial activity in culture supernatants of gene-replaced strains, plate diffusion bioassays; for nisin activity (% of wild type), gene replacement / zone of inhibition / inhibitory effect compared with parent strain FI5876: plate diffusion bioassay; for nisin activity (% of wild type), gene replacement: functional nisA gene incorporated in the chromosome of FI7990 in place of nisA deletion; for zone of inhibition / inhibitory effect compared with parent strain FI5876: cell extracts of gene-replaced strains
Experimental: 150 μl samples of cell free extracts from strains: 4, FI5876; 5, FI7990; 6, FI8070; 7, FI8198; 8, FI8199 were loaded into wells bored in MRS agar seeded with the indicator strains Lactobacillus helveticus CH-1. Plates were incubated overnight at 42° C. Standards included on the assay plate are: 1,50; 2,100; 3,200; 9,300; 10,400 U/ml.
(§1) Nisin activity in Lactococcal strains was assayed by both deferred and direct means. Plate diffusion bioassays were performed as previously described (Dodd et al (1992) Appl. Environ. Microbiol. 58, 3683-3693. Colonies growing on the surface of a GM17 plate were directly assayed by inverting over chloroform for 12 minutes and overlaying with agar seeded with the nisin sensitive L. lactis strain MG1614. Plates were incubated overnight and zone sizes around colonies compared with those of controls. Nisin immunity was determined by streaking cultures on a series of GM17 agar plates containing an increasing concentration of nisin and assessing the degree of growth at the different nisin levels. Control cultures (FI5876, positive) and MG1614 (negative) were included on each plate.
This corresponds to an increase of approximately 50% of nisin A levels, under the conditions used here (Table 1). This higher level of production was not found in the extracts of FI8199, producing the double mutant nisin A/Dha5A,Dha33A. […] In all cases the yield for a particular nisin variant was higher when using this gene replacement strategy than when the equivalent plasmid-encoded gene was employed in a plasmid complementation system (Table 3, Dodd et al (1992) (1993) supra).

[3] = system: FI7847 [nisA-(fs)]; assay: Induction by nisin / nisin variants as inducing agent; type: cell-based, L. lactis; design: Induction: unit not given here; conditions: strain FI7847
Experimental: A particularly preferred embodiment of the third aspect of the invention is wherein the cells are cultured in the presence of nisA nisin or a variant nisin which can induce nisin expression. […] By adding sub-inhibitory concentrations of nisin to the growth medium, during fermentation, higher levels of the variant nisin are produced. Any variants that are less efficient as inducing agents benefit from the inclusion of nisin in the growth medium (ie a nisin induction step in the purification procedure). The amount of induction varies depending on the initial induction capacity of any particular variant (with I30W nisin A production more than doubled as a result of induction). Induction may be routinely included in the method as a means of maximising production levels. Any concerns about contamination with the wild type molecule are minimal as the nisin concentration required for induction is negligible compared to the amount of nisin variant being purified. Conveniently, the nisA nisin is a minimum amount that provides maximal induction of nisin production. This amount can be determined empirically by a person skilled in the art. Suitable nisA nisin concentrations for induction in this embodiment are from 1 nM to 500 nM, preferably 10 nM to 250 nM, more preferably 50 nM to 150 nM, most preferably 100 nM.
In some circumstances it is desirable to add nisA nisin as an inducer.

[4] = system: sensitive indicator strains; conditions: work described in WO 93/20213; cited from earlier work
[5] = system: Lactobacillus helveticus CH-1; conditions: plate diffusion bioassay; plasmid-encoded nisA gene complementing nisA deficiency in host strain FI7332; cited from earlier work
[6] = system: nisin sensitive L. lactis strain MG1614; conditions: colony overlay assay; plasmid complementation; cited from earlier work
[7] = system: FI8198 (nisA/S33A); assay: Nisin immunity on GM17 agar plates with increasing nisin; type: cell-based, L. lactis; conditions: nisin level tolerated by strain FI8198 nisA/S33A
Experimental: as §1

[8] = system: FI8070 (nisA/S5A); assay: as above; type: cell-based, L. lactis; conditions: nisin level tolerated by strain FI8070 nisA/S5A
Experimental: as §1

[9] = system: FI7893 (nisA); assay: as above; type: cell-based, L. lactis; conditions: nisin level tolerated by strain FI7893 nisA
Experimental: as §1

[10] = system: MG1614; assay: as above; type: cell-based, L. lactis; conditions: nisin level tolerated by strain MG1614
Experimental: as §1

[11] = system: FI8199 (nisA/S5A,S33A); assay: as above; type: cell-based, L. lactis; conditions: nisin level tolerated by strain FI8199 nisA/S5A
Experimental: as §1

[12] = system: FI5876; assay: as above; type: cell-based, L. lactis
Experimental: as §1
(§2) The effect of disruption of the nisA gene on immunity of the host strain to nisin has been described previously (Dodd et al (1992) supra). […] The nisA deleted strain FI7990 was sensitive to nisin at a concentration of between 250 and 500 U/ml compared to the parent strain, FI5876, which will continue growing in the presence of nisin to over 1000 U/ml.

[13] = system: FI7847 [nisA-(fs)]; assay: as above; type: cell-based, L. lactis; conditions: nisin level tolerated by strain FI7847 nisA-(fs)
Experimental: as §1, §2

[14] = system: FI7990 (ΔnisA); assay: as above; type: cell-based, L. lactis; conditions: nisin level tolerated by strain FI7990 ΔnisA
Experimental: as §1, §2

[15] = system: FI8003 (nisA); assay: as above; type: cell-based, L. lactis; conditions: nisin level tolerated by strain FI8003 nisA (BamHI site in promoter)
Experimental: as §1
A possible explanation for the difference in nisin sensitivity of these two Nis^− strains came from gene replacement studies involving the vector pFI740 (FIG. 2d). […] The only difference between the two sequences involved is that pFI740 has an additional BamHI site incorporated 80 bp upstream of the ATG start codon of nisA, and a BglII site immediately downstream of the coding region (FIG. 4). […] A single base pair change introduced as a result of engineering the BamHI site has the effect of converting the -35 sequence from CTGATT to CCGATT (FIG. 4).

| Compound | MIC [1] [µg/mL] | Activity (% of wt) [2] | Induction ([3]; inducing agent at 100 ng ml^−1) | antimicrobial activity against sensitive indicator strains [4] | nisin activity (% of wild type), gene replacement [2] | Induction ([3]; inducing agent at 1 mg ml^−1) | nisin activity (% of wild type), complementation [5] | zone of inhibition / inhibitory effect compared with parent strain FI5876 [2] | antimicrobial activity, plasmid-encoded gene complementing nisA deficiency [6] | increase over nisin A levels ([2]; cell extract from FI8198, plate diffusion bioassay) | Immunity [7] [U/ml × 10^3] | Immunity [8] [U/ml × 10^3] | Immunity [9] [U/ml × 10^3] | Immunity [10] [U/ml × 10^3] | Immunity [11] [U/ml × 10^3] | Immunity ([12]; nisin level tolerated by strain FI5876 (wild type)) [U/ml × 10^3] | nisin concentration at which the strain continues growing ([12]; parent strain FI5876) | Immunity [13] | Immunity [14] | Immunity [15] |
| --- | --- | --- | --- | --- | --- | --- | --- | --- | --- | --- | --- | --- | --- | --- | --- | --- | --- | --- | --- | --- |
| C=C(NC(=O)[C@@H](NC(=O)[C@H](Cc1c[nH]cn1)NC(=O)[C@@H](NC(=O)[C@H](CO)NC(=O)[C@@H]1CS[C@@H](C)[C@H]2NC(=O)[C@H](C)NC(=O)[C@H](NC(=O)[C@H](CCCCN)NC(=O)[C@H](CCSC)NC(=O)[C@H](CC(N)=O)NC(=O)[C@@H]3CS[C@@H](C)[C@@H](NC(=O)[C@H](CC(C)C)NC(=O)[C@@H]4CS[C@@H](C)[C@@H](NC(=O)[C@@H]5CSC[C@@H](NC(=O)/C(=C/C)NC(=O)[C@@H](N)[C@@H](C)CC)C(=O)N[C@@H]([C@@H](C)CC)C(=O)NC(=C)C(=O)N[C@@H](CC(C)C)C(=O)N5)C(=O)N5CCC[C@H]5C(=O)NCC(=O)N4)C(=O)NCC(=O)N[C@@H](C)C(=O)N[C@@H](CC(C)C)C(=O)N[C@@H](CCSC)C(=O)NCC(=O)N3)[C@H](C)SC[C@H](NC2=O)C(=O)N[C@@H](Cc2c[nH]cn2)C(=O)N1)[C@@H](C)CC)C(C)C)C(=O)N[C@@H](CCCCN)C(=O)O [K12L] | 130 (≈ 38.9 µM) | 10 % of wt | 81 | – | – | – | – | – | – | – | – | – | – | – | – | – | – | – | – | – |
| C=C(NC(=O)[C@@H](NC(=O)[C@H](Cc1c[nH]cn1)NC(=O)[C@@H](NC(=O)[C@H](CO)NC(=O)[C@@H]1CS[C@@H](C)[C@H]2NC(=O)[C@H](C)NC(=O)[C@H](NC(=O)[C@H](CCCCN)NC(=O)[C@H](CCSC)NC(=O)[C@H](CC(N)=O)NC(=O)[C@@H]3CS[C@@H](C)[C@@H](NC(=O)[C@H](CCCCN)NC(=O)[C@@H]4CS[C@@H](C)[C@@H](NC(=O)[C@@H]5CSC[C@@H](NC(=O)/C(=C/C)NC(=O)[C@@H](N)[C@@H](C)CC)C(=O)N[C@@H]([C@@H](C)CC)C(=O)N[C@@H](C)C(=O)N[C@@H](CC(C)C)C(=O)N5)C(=O)N5CCC[C@H]5C(=O)NCC(=O)N4)C(=O)NCC(=O)N[C@@H](C)C(=O)N[C@@H](CC(C)C)C(=O)N[C@@H](CCSC)C(=O)NCC(=O)N3)[C@H](C)SC[C@H](NC2=O)C(=O)N[C@@H](Cc2c[nH]cn2)C(=O)N1)[C@@H](C)CC)C(C)C)C(=O)N[C@@H](CCCCN)C(=O)O [nisin A (Dha5A)] | 250 (≈ 74.5 µM) | 100 % of wt | 114 | retained their antimicrobial activity | 100 % of wild type | 107 | 25 % of wild type | – | – | – | – | – | – | – | – | – | – | – | – | – |
| C/C=C(\NC(=O)[C@@H](N)[C@@H](C)CC)C(=O)N[C@@H]1CSC[C@@H](C(=O)N[C@H]2C(=O)N3CCC[C@H]3C(=O)NCC(=O)N[C@H](C(=O)N[C@@H](CCCCN)C(=O)N[C@H]3C(=O)NCC(=O)N[C@@H](C)C(=O)N[C@@H](CC(C)C)C(=O)N[C@@H](CCSC)C(=O)NCC(=O)N[C@H](C(=O)N[C@@H](CC(N)=O)C(=O)N[C@@H](CCSC)C(=O)N[C@@H](CCCCN)C(=O)N[C@H]4C(=O)N[C@@H](C)C(=O)N[C@H]5C(=O)N[C@@H](CS[C@H]4C)C(=O)N[C@@H](Cc4c[nH]cn4)C(=O)N[C@H](C(=O)N[C@@H](CO)C(=O)N[C@H](C(=O)N[C@@H](Cc4c[nH]cn4)C(=O)N[C@H](C(=O)N[C@@H](C)C(=O)N[C@@H](CCCCN)C(=O)O)C(C)C)[C@@H](C)CC)CS[C@H]5C)CS[C@H]3C)CS[C@H]2C)NC(=O)[C@H](CC(C)C)NC(=O)[C@H](C)NC(=O)[C@H]([C@@H](C)CC)NC1=O [nisin A (Dha5A, Dha33A)] | 1000 (≈ 298 µM) | 100 % of wt | 34 | retained their antimicrobial activity | 100 % of wild type | 106 | <1^d % of wild type | equivalent that of nisin A containing the single mutation and also the wild type molecule | only detected in the more sensitive colony overlay assay | – | – | – | – | – | – | – | – | – | – | – |
| C=C1NC(=O)[C@H]([C@@H](C)CC)NC(=O)[C@H](NC(=O)/C(=C/C)NC(=O)[C@@H](N)[C@@H](C)CC)CSC[C@@H](C(=O)N[C@H]2C(=O)N3CCC[C@H]3C(=O)NCC(=O)N[C@H](C(=O)N[C@@H](CCCCN)C(=O)N[C@H]3C(=O)NCC(=O)N[C@@H](C)C(=O)N[C@@H](CC(C)C)C(=O)N[C@@H](CCSC)C(=O)NCC(=O)N[C@H](C(=O)N[C@@H](CC(N)=O)C(=O)N[C@@H](CCSC)C(=O)N[C@@H](CCCCN)C(=O)N[C@H]4C(=O)N[C@@H](C)C(=O)N[C@H]5C(=O)N[C@@H](CS[C@H]4C)C(=O)N[C@@H](Cc4c[nH]cn4)C(=O)N[C@H](C(=O)N[C@@H](CO)C(=O)N[C@H](C(=O)N[C@@H](Cc4c[nH]cn4)C(=O)N[C@H](C(=O)N[C@@H](C)C(=O)N[C@@H](CCCCN)C(=O)O)C(C)C)[C@@H](C)CC)CS[C@H]5C)CS[C@H]3C)CS[C@H]2C)NC(=O)[C@H](CC(C)C)NC1=O [nisin A (Dha33A)] | 250 (≈ 74.5 µM) | 150 % of wt | 17 | retained their antimicrobial activity | 150 % of wild type | 101 | 10 % of wild type | larger than that of the parent strain | – | approximately 50% | – | – | – | – | – | – | – | – | – | – |
| nisin | – | – | – | – | – | – | – | – | – | – | >1 | >1 | >1 | 0.01 | >1 | >1 | over 1000 U/ml | 0.5-0.75 U/ml × 10^3 | 0.25-0.5 U/ml × 10^3 | 0.25-0.5 U/ml × 10^3 |
